Measured values published in patent publication US20250320254A1, “Compositions and Methods for Modulating Circulating Factors” (Flagship Pioneering Innovations VII, LLC, priority 2022, published 2025).
No end group written: not given here.

Test system: human primary hepatocytes
Assay: LDL uptake assay (BODIPY-labelled LDL, high content imaging)
Format: cell-based
Conditions: 5 uM concentration, 4 h
Description: The effects of putative cholesterol lowering peptides was assessed using LDL uptake assays in primary human hepatocytes from a pool of 10 healthy donors. Hepatocytes were treated with peptides as well as LDL-labelled BODIPY for 4 h. Cells were then fixed, permeabilized and imaged on an Opera Phenix high content imaging platform. LDL uptake was determined using BODIPY stain intensity.
Human primary hepatocytes were seeded into 96-well PhenoVue plates at 37K/well density and recovered overnight. The next say, hepatocytes were treated with 5 uM peptide or null control (DMSO) as well as a BODIPY-labelled LDL (Invitrogen™ Image-iT™ Low Density Lipoprotein Uptake Kit, Bodipy FL, I34359). This assay is designed to specifically detect binding and uptake of LDL through the LDL receptor internalization pathway, allowing maximum control and flexibility in experimental design. Two controls were built into the system, unlabeled LDL and heparin. Unlabeled LDL provides an optional pre-treatment to occlude cell surface receptors in advance of probing with the labeled construct, while heparin is provided as an additional control to chelate the LDL in the solution phase outside of the cells, thus preventing binding and uptake of the labeled LDL. Metformin, a type 2 diabetes drug with cholesterol lowering effects, was used as a positive control for increased LDL uptake (FIG. 1). Following peptide, control, and LDL-BODIPY treatment, cells were incubated for 4 h in a 37 C incubator with 5% CO2. Following incubation, cells were fixed with 4% paraformaldehyde for 15 min. Cells were then permeabilized and stained with DAPI to visualize nuclei. Wells were then washed with HBSS and imaged using a Perkin Elmer Opera Phenix high content imaging platform (fluorescence) at 20× magnification with 9 fields per well. BODIPY spot intensity was quantified using the Harmony image analysis software.

Sequence | LDL uptake in hepatocytes
MMLPLWTFLERAMLLLISEVANRFKWSNGYTWKMPKA [SEQ ID NO: 36277] | increasing LDL uptake
LVVRWAVLVFRSSTAALPRAAEAARRSEKWPKTSALGRRS [SEQ ID NO: 26888] | increasing LDL uptake
MTAAVSLTRSPAISASCAASRSASPWAWPWTWF [SEQ ID NO: 75353] | increasing LDL uptake
